How the values were obtained:
Mus musculus [1] = test: Antidepressant activity in ICR mouse assessed as reduction in immobility time of forced swimming at 10 mg/kg, po administered once daily for 5 days by forced swimming test relative to control; type: functional; parameters: scale not given: the % may be the effect or the level left
Mus musculus [2] = test: Antidepressant activity in ICR mouse assessed as reduction in immobility time of forced swimming at 100 mg/kg, po administered once daily for 5 days by forced swimming test relative to control; type: functional; parameters: scale not given: the % may be the effect or the level left

Structure (SMILES) | Activity (Mus musculus [1]) | Activity (Mus musculus [2])
C[C@@H]1O[C@@H](O[C@H]2[C@H](OC(=O)[C@]34CCC(C)(C)C[C@H]3C3=CC[C@@H]5[C@@]6(C)C[C@H](O)[C@H](O[C@@H]7O[C@H](CO)[C@@H](O)[C@H](O)[C@H]7O)[C@](C)(CO)[C@@H]6CC[C@@]5(C)[C@]3(C)CC4)O[C@H](CO)[C@@H](O[C@@H]3OC[C@@H](O)[C@H](O)[C@H]3O)[C@@H]2O[C@@H]2OC[C@](O)(CO)[C@H]2O)[C@H](O)[C@H](O)[C@H]1O [POLYGALASAPONIN V] | 16.8% | 16.6%
C[C@@H]1O[C@@H](O[C@H]2[C@H](OC(=O)[C@]34CCC(C)(C)C[C@H]3C3=CC[C@@H]5[C@@]6(C)C[C@H](O)[C@H](O)[C@@](C)(C(=O)O)[C@@H]6CC[C@@]5(C)[C@]3(C)CC4)O[C@H](CO)[C@@H](O)[C@@H]2O)[C@H](O)[C@H](O)[C@H]1O[C@@H]1OC[C@@H](O)[C@H](O)[C@H]1O [POLYGALASAPONIN E] | 35.4% | 58.1%
C[C@@H]1O[C@@H](O[C@H]2[C@H](OC(=O)[C@]34CCC(C)(C)C[C@H]3C3=CC[C@@H]5[C@@]6(C)C[C@H](O)[C@H](O)[C@@](C)(C(=O)O)[C@@H]6CC[C@@]5(C)[C@]3(C)CC4)O[C@H](CO)[C@@H](O)[C@@H]2O)[C@H](O)[C@H](O[C@H]2OC[C@@](O)(CO)[C@@H]2O)[C@H]1O[C@@H]1OC[C@@H](O)[C@H](O)[C@H]1O [POLYGALASAPONIN H] | 45.8% | 51.3%
CNCCC(Oc1ccc(C(F)(F)F)cc1)c1ccccc1 (configuration not stated) [FLUOXETINE] | 50.7% | –

Reference: ChEMBL document CHEMBL1157315, “Saponins from Polygala japonica and their effects on a forced swimming test in mice” (2006)
